Test results as given in paper PMC3402541, “Guanidylation and Tail Effects in Cationic Antimicrobial Lipopeptoids” (PLoS ONE, 2012).
Values after ≈ are worked out from the molar mass of the structure shown.

Columns and labels:
E. faecalis ATCC 29212 = assay type: cell-based, Enterococcus faecalis; conditions: ATCC 29212, Mueller-Hinton broth, 24 hr, 37°C, without replication; for MIC E. faecalis in the presence of 4% bovine serum albumin: 4% BSA added, macrobroth dilution; for MIC E. faecalis: CLSI macrobroth dilution, 5 x 10^5 CFU/mL
In short: (§1)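 Twofold dilution series in CAMHB; inoculum ≈5 x 10^5 CFU/mL checked by colony counts; 24 hr, 37°C, ambient air; MIC by visual reading of tubes.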

[1] = test system: S. maltophilia CAN-ICU 62584; assay type: cell-based, Stenotrophomonas maltophilia; conditions: CAN-ICU 62584, Mueller-Hinton broth, 24 hr, 37°C, without replication; for MIC S. maltophilia in the presence of 4% bovine serum albumin: 4% BSA added, macrobroth dilution; for MIC S. maltophilia: CLSI macrobroth dilution, 5 x 10^5 CFU/mL
In short: as §1

Gram negative bacteria = assay: MIC with 4% BSA, summary over Gram negative strains; assay type: cell-based; conditions: 4% BSA added
Experimental: Antimicrobial activity of the purified lipopeptoids was determined without replication against a panel of clinically relevant and standard reference bacterial strains according to CLSI macrobroth standards. Stock solutions at 512 µg/mL were prepared in water, with DMSO as needed, and testing was performed in glass test tubes using Muller-Hinton broth and bacteria adjusted to 5 × 10^5 CFU/mL. Bacteria were incubated with the lipopeptoid of interest for 24 hr at 37°C prior to reading. […]
After subculturing the relevant bacteria twice from frozen stock, in vitro activities of the antimicrobials were determined by macrobroth dilution methodology in accordance with the Clinical and Laboratory Standards Institute (CLSI) guidelines (3). The MICs were determined using glass test tubes (2 mL/tube) containing doubling antimicrobial dilutions of cation adjusted Mueller-Hinton broth inoculated to achieve a final concentration of approximately 5 x 10^5 CFU/mL, incubated in ambient air for 24 hr prior to reading. […]

MRSA ATCC 33592 = assay type: cell-based, methicillin-resistant S. aureus; conditions: ATCC 33592, Mueller-Hinton broth, 24 hr, 37°C, without replication; for MIC MRSA in the presence of 4% bovine serum albumin: 4% BSA added, macrobroth dilution; for MIC MRSA: CLSI macrobroth dilution, 5 x 10^5 CFU/mL
In short: as §1

SMILES	MIC E. faecalis in the presence of 4% bovine serum albumin (E. faecalis ATCC 29212) [µg/mL]	MIC E. faecalis (E. faecalis ATCC 29212) [µg/mL]	MIC S. maltophilia in the presence of 4% bovine serum albumin [1] [µg/mL]	MIC S. maltophilia [1] [µg/mL]	MIC against Gram negative bacteria with 4% BSA (Gram negative bacteria) [µg/mL]	MIC MRSA in the presence of 4% bovine serum albumin (MRSA ATCC 33592) [µg/mL]	MIC MRSA (MRSA ATCC 33592) [µg/mL]
CCCCCCCCCCCCCCCC[N+](C)(C)C.[Cl-] [CTAC, Cetyltrimethylammonium chloride, reference compound]	32	1	512	32	≥ 512	32	1
NCCCCN(CC(N)=O)C(=O)CNC(=O)CN(CCCCN)C(=O)CCC(F)(F)C(F)(F)C(F)(F)C(F)(F)C(F)(F)C(F)(F)C(F)(F)C(F)(F)F [F11-NlysGNlys]	256	64 (≈ 79.5 µM)	>512	>512		256	64 (≈ 79.5 µM)
NCCCCN(CC(N)=O)C(=O)CN(CCCCN)C(=O)CN(CCCCN)C(=O)CCC(F)(F)C(F)(F)C(F)(F)C(F)(F)C(F)(F)C(F)(F)C(F)(F)C(F)(F)F [F11-NlysNlysNlys]	512	64 (≈ 73.1 µM)	>512	>512		256	32 (≈ 36.5 µM)
